According to patent US20070155764A1, “NOVEL SUBSTITUTED PYRIMIDINYLOXY UREAS USEFUL AS INHIBITORS OF PROTEIN KINASES” (KALYPSYS, INC., priority 2005, published 2007):

What was measured:
Format in all cases: biochemical
PDGFRβ kinase = target: T1, PDGFRβ kinase (Homo sapiens, UniProt P09619); assay: In vitro PDGFRβ kinase assay; conditions: ADP Quest assay, poly Glu:Tyr substrate, 60 μM ATP
T1 construct: purchased Invitrogen Inc. P3082
In short: (§1)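 Compound was preincubated 10 min at ~22 °C with 20 ng VEGFR2 or 25 ng PDGFRβ, then poly Glu:Tyr (4:1) substrate (0.25 μg) with 60 μM ATP (in added buffer) was reacted 2 h at 30 °C. ADP Quest resorufin fluorescence was read (ex 530/em 580) after 30 min. Efficacy is expressed as percent of positive-control (Bay 43-9006) activity, with DMSO as negative control.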

VEGFR2 kinase = target: T2, VEGFR2 kinase (Homo sapiens, UniProt P35968); assay: In vitro VEGFR2 kinase assay; conditions: ADP Quest assay, poly Glu:Tyr substrate, 60 μM ATP
T2 construct: purchased Invitrogen Inc PV3660
In short: as §1

[1] = target: T3, human B-Raf protein kinase (Homo sapiens, UniProt P15056); assay: In vitro B-Raf/Mek1 composite kinase assay; conditions: recombinant GST-tagged human B-Raf (Δ1-415) with inactive Mek1, 2 μM ATP
T3 construct: GST (N); purchased Upstate Inc. 14-530 (B-Raf); 14-420 (Mek1)
In short: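 Luminescent ATP-depletion assay using recombinant N-terminal GST-tagged human B-Raf (Δ1-415, 1 ng/well) in MOPS pH 7.2 buffer with 10 mM MgCl2. Compounds were preincubated 15 min at about 22° C, then the reaction ran 2 h before PKLight readout. Efficacy is expressed as percentage of positive-control (Bay 43-9006) activity.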

T3 sequence (P15056 416-766): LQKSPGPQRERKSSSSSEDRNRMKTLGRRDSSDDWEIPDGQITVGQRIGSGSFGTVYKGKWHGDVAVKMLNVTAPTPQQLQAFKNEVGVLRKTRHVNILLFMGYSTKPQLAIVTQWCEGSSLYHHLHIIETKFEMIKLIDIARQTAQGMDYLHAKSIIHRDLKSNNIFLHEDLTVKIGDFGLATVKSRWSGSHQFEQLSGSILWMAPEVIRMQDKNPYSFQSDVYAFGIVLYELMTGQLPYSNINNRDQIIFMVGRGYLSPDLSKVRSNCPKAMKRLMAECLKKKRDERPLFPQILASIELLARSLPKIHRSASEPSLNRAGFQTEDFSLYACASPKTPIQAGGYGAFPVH
T1 sequence (P09619 33-1106): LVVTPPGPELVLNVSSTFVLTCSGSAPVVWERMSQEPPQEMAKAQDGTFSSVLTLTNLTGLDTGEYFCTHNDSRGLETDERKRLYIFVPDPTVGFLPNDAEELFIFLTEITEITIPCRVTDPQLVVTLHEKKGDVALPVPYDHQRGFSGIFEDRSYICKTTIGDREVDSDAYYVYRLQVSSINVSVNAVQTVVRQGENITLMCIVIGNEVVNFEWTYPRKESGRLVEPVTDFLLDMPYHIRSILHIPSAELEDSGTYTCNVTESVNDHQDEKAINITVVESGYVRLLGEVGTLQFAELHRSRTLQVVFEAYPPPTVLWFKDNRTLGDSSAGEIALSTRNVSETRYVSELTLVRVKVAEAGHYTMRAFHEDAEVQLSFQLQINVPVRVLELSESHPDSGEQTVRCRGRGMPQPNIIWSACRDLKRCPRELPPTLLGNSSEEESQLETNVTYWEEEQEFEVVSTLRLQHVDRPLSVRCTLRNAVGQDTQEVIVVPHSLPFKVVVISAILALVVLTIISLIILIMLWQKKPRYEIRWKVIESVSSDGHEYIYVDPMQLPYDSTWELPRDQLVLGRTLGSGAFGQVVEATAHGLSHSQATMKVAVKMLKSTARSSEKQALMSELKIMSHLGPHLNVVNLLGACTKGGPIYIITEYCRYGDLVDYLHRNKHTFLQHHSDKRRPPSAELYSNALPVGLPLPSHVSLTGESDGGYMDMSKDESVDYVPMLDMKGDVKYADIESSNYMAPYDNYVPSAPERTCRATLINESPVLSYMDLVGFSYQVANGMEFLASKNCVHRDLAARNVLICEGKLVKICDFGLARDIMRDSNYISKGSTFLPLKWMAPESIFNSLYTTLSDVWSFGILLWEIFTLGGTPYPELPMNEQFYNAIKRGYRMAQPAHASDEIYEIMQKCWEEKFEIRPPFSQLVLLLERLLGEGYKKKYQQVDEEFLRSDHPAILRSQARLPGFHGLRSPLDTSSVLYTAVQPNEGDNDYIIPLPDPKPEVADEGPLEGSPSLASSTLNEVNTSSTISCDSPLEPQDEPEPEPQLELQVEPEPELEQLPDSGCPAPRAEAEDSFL
T2 sequence (P35968 20-1356): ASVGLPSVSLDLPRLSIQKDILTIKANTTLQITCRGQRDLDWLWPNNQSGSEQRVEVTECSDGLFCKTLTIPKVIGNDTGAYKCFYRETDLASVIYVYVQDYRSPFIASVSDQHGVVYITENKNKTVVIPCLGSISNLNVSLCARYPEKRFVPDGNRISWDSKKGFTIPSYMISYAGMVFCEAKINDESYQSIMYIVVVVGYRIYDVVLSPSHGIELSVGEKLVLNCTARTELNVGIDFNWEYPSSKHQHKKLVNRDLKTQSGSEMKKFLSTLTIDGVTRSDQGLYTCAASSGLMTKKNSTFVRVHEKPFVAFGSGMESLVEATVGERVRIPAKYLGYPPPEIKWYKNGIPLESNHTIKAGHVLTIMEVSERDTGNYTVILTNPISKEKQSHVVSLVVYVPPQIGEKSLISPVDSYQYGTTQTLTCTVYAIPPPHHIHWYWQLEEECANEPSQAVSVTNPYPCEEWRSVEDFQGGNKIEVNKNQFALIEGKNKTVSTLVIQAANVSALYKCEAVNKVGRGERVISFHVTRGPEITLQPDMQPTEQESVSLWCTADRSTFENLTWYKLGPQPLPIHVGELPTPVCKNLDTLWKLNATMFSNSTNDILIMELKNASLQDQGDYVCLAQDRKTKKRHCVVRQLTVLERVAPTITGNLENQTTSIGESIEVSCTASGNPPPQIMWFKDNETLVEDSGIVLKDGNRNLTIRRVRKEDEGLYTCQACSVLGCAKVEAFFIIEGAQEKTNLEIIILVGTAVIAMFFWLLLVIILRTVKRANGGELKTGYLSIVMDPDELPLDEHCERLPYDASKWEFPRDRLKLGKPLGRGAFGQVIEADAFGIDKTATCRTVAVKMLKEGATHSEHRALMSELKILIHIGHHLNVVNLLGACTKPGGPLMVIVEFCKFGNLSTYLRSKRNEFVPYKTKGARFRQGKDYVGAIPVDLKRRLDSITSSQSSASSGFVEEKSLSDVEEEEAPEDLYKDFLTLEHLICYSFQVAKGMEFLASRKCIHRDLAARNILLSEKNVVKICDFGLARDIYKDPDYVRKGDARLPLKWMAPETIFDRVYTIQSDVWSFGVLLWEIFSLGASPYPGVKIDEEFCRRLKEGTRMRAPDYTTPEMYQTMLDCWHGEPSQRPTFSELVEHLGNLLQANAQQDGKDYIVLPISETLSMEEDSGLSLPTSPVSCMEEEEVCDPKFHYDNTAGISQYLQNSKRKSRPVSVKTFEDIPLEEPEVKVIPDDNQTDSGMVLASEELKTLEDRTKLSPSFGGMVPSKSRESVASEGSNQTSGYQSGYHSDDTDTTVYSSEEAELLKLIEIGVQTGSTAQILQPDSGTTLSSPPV

Compound | IC50 (PDGFRβ kinase) [µM] | IC50 (VEGFR2 kinase) [µM] | IC50 [1] [µM]
O=C(Nc1ccc(Oc2cc(-n3cncn3)ncn2)cc1)Nc1ccc(Cl)c(C(F)(F)F)c1 [Example 1, 1-(4-Chloro-3-trifluoromethyl-phenyl)-3-[4-(6-[1,2,4]triazol-1-yl-pyrimidin-4-yloxy)-phenyl]-urea] | ≤ 10 | ≤ 10 | ≤ 10
O=C(Nc1ccc(Cl)c(C(F)(F)F)c1)Nc1cc(Oc2cc(-c3nnco3)ncn2)c(F)cc1F [Example 45, 1-(5-(6-(1,3,4-Oxadiazol-2-yl)pyrimidin-4-yloxy)-2,4-difluorophenyl)-3-(4-chloro-3-(trifluoromethyl)phenyl)urea] | ≤ 10 | ≤ 10 | ≤ 10
Cn1cc(-c2cc(Oc3cccc(NC(=O)Nc4ccc(C(F)(F)F)cc4Cl)c3)ncn2)cn1 [Example 96, 1-(2-Chloro-4-(trifluoromethyl)phenyl)-3-(3-(6-(1-methyl-1H-pyrazol-4-yl)pyrimidin-4-yloxy)phenyl)urea] | ≤ 10 | ≤ 10 | ≤ 10
O=C(Nc1ccc(Oc2cc(-c3nc(C(F)(F)F)c[nH]3)ncn2)cc1)Nc1ccc(Cl)c(C(F)(F)F)c1 [Example 73, 1-(4-Chloro-3-(trifluoromethyl)phenyl)-3-(4-(6-(4-(trifluoromethyl)-1H-imidazol-2-yl)pyrimidin-4-yloxy)phenyl)urea] | ≤ 10 | > 10 | ≤ 10
Cn1cc(-c2nccc(Oc3cccc(NC(=O)Nc4ccc(C(F)(F)F)cc4)c3)n2)cn1 [Example 80, 1-(3-(2-(1-Methyl-1H-pyrazol-4-yl)pyrimidin-4-yloxy)phenyl)-3-(4-(trifluoromethyl)phenyl)urea] | ≤ 10 | ≤ 10 | ≤ 10
Cn1cc(-c2nccc(Oc3cccc(NC(=O)Nc4cc(C(F)(F)F)cc(C(F)(F)F)c4)c3)n2)cn1 [Example 84, 1-(3,5-Bis(trifluoromethyl)phenyl)-3-(3-(2-(1-methyl-1H-pyrazol-4-yl)pyrimidin-4-yloxy)phenyl)urea] | ≤ 10 | ≤ 10 | ≤ 10
Cn1cc(-c2nccc(Oc3cccc(NC(=O)Nc4cccc(OC(F)(F)F)c4)c3)n2)cn1 [Example 83, 1-(3-(2-(1-Methyl-1H-pyrazol-4-yl)pyrimidin-4-yloxy)phenyl)-3-(3-(trifluoromethoxy)phenyl)urea] | ≤ 10 | ≤ 10 | ≤ 10
O=C(Nc1ccc(Oc2ccnc(-n3cncn3)n2)cc1)Nc1ccc(Cl)c(C(F)(F)F)c1 [Example 2, 1-(4-Chloro-3-trifluoromethyl-phenyl)-3-[4-(2-[1,2,4]triazol-1-yl-pyrimidin-4-yloxy)-phenyl]-urea] | > 10 | > 10 | > 10
COc1cc(CNC(=O)Nc2cccc(Oc3ccnc(-c4nnco4)c3)c2)cc(OC)c1OC [Example 5, 1-[3-(2-[1,3,4]Oxadiazol-2-yl-pyridin-4-yloxy)-phenyl]-3-(3,4,5-trimethoxybenzyl)-urea] | > 10 | ≤ 10 | ≤ 10
O=C(Nc1ccc(Oc2cc(-c3ncn[nH]3)ncn2)cc1)Nc1ccc(Cl)c(C(F)(F)F)c1 [Example 22, 1-(4-(6-(1H-1,2,4-Triazol-5-yl)pyrimidin-4-yloxy)phenyl)-3-(4-chloro-3-(trifluoromethyl)phenyl)urea] | ≤ 10 | ≤ 10 | ≤ 10
Cn1cc(-c2nccc(Oc3ccc(NC(=O)Nc4cccc(C(F)(F)F)c4)c(F)c3)n2)cn1 [Example 93, 1-(2-Fluoro-4-(2-(1-methyl-1H-pyrazol-4-yl)pyrimidin-4-yloxy)phenyl)-3-(3-(trifluoromethyl)phenyl)urea] | ≤ 10 | ≤ 10 | ≤ 10
Cn1cc(-c2nccc(Oc3ccc(NC(=O)Nc4ccc(Cl)c(C(F)(F)F)c4)c(F)c3)n2)cn1 [Example 88, 1-(4-Chloro-3-(trifluoromethyl)phenyl)-3-(2-fluoro-4-(2-(1-methyl-1H-pyrazol-4-yl)pyrimidin-4-yloxy)phenyl)urea] | ≤ 10 | ≤ 10 | ≤ 10
CN1CCC(Oc2cc(Cl)c(C(F)(F)F)cc2NC(=O)Nc2ccc(Oc3ccnc(-c4nnco4)c3)cc2)CC1 [Example 44] | ≤ 10 | ≤ 10 | ≤ 10
CN(C(=O)Nc1ccc(Cl)c(C(F)(F)F)c1)c1cccc(Oc2ccnc(-c3nnco3)c2)c1 [Example 111] | ≤ 10 | > 10 | > 10
Cc1nc(C)c(-c2cc(Oc3ccc(NC(=O)Nc4ccc(Cl)c(C(F)(F)F)c4)cc3)ncn2)s1 [Example 30, 1-(4-Chloro-3-(trifluoromethyl)phenyl)-3-(4-(6-(2,4-dimethylthiazol-5-yl)pyrimidin-4-yloxy)phenyl)urea] | ≤ 10 | ≤ 10 | > 10
CCN(CC)CCNC(=O)c1cc(NC(=O)Nc2cccc(Oc3cc(-c4nnco4)ncn3)c2)cc(C(F)(F)F)c1 [Example 32, 3-(3-(3-(6-(1,3,4-Oxadiazol-2-yl)pyrimidin-4-yloxy)phenyl)ureido)-N-(2-(diethylamino)ethyl)-5-(trifluoromethyl)benzamide] | ≤ 10 | ≤ 10 | ≤ 10
Cn1cc(-c2cc(Oc3cc(NC(=O)Nc4ccc(Cl)c(C(F)(F)F)c4)c(F)cc3F)ncn2)cn1 [Example 57, 1-(4-Chloro-3-(trifluoromethyl)phenyl)-3-(2,4-difluoro-5-(6-(1-methyl-1H-pyrazol-4-yl)pyrimidin-4-yloxy)phenyl)urea] | ≤ 10 | ≤ 10 | ≤ 10

Continued, values first:

IC50 (PDGFRβ kinase) [µM] | IC50 (VEGFR2 kinase) [µM] | IC50 [1] [µM] | Compound
≤ 10 | ≤ 10 | ≤ 10 | NC(=O)Cn1ccc(-c2cc(Oc3cccc(NC(=O)Nc4ccc(Cl)c(C(F)(F)F)c4)c3)ncn2)n1 [Example 59, 2-(3-(6-(3-(3-(4-Chloro-3-(trifluoromethyl)phenyl)ureido)phenoxy)pyrimidin-4-yl)-1H-pyrazol-1-yl)acetamide]
≤ 10 | ≤ 10 | ≤ 10 | CN(C)CCNc1nc(-c2cc(Oc3cccc(NC(=O)Nc4ccc(Cl)c(C(F)(F)F)c4)c3)ncn2)cs1 [Example 50, 1-(4-Chloro-3-(trifluoromethyl)phenyl)-3-(3-(6-(2-(2-(dimethylamino)ethylamino)thiazol-4-yl)pyrimidin-4-yloxy)phenyl)urea]
≤ 10 | > 10 | > 10 | Cc1nn(C)c(C)c1-c1cc(Oc2ccc(NC(=O)Nc3ccc(Cl)c(C(F)(F)F)c3)cc2)ncn1 [Example 70, 1-(4-Chloro-3-(trifluoromethyl)phenyl)-3-(4-(6-(1,3,5-trimethyl-1H-pyrazol-4-yl)pyrimidin-4-yloxy)phenyl)urea]
≤ 10 | ≤ 10 | ≤ 10 | CNC(=O)Cn1cc(-c2cc(Oc3cccc(NC(=O)Nc4ccc(Cl)c(C(F)(F)F)c4)c3)ncn2)cn1 [Example 56, 2-(4-(6-(3-(3-(4-Chloro-3-(trifluoromethyl)phenyl)ureido)phenoxy)pyrimidin-4-yl)-1H-pyrazol-1-yl)-N-methylacetamide]
> 10 | > 10 | ≤ 10 | O=C(Nc1cccc(Oc2cc(-c3cnn(Cc4ccccc4)c3)ncn2)c1)Nc1ccc(Cl)c(C(F)(F)F)c1 [Example 49, 1-(3-(6-(1-Benzyl-1H-pyrazol-4-yl)pyrimidin-4-yloxy)phenyl)-3-(4-chloro-3-(trifluoromethyl)phenyl)urea]
≤ 10 | ≤ 10 | ≤ 10 | O=C(Nc1cccc(Oc2cc(-c3cnn(CCN4CCOCC4)c3)ncn2)c1)Nc1ccc(Cl)c(C(F)(F)F)c1 [Example 77, 1-(4-Chloro-3-(trifluoromethyl)phenyl)-3-(3-(6-(1-(2-morpholinoethyl)-1H-pyrazol-4-yl)pyrimidin-4-yloxy)phenyl)urea]
≤ 10 | ≤ 10 | ≤ 10 | Cn1nnnc1-c1cc(Oc2cccc(NC(=O)Nc3ccc(Cl)c(C(F)(F)F)c3)c2)ncn1 [Example 21, 1-(4-chloro-3-(trifluoromethyl)phenyl)-3-(3-(6-(1-methyl-1H-tetrazol-5-yl)pyrimidin-4-yloxy)phenyl)urea]
≤ 10 | ≤ 10 | ≤ 10 | CNC(=O)Cn1ccc(-c2cc(Oc3cccc(NC(=O)Nc4ccc(Cl)c(C(F)(F)F)c4)c3)ncn2)n1 [Example 60, 2-(3-(6-(3-(3-(4-Chloro-3-(trifluoromethyl)phenyl)ureido)phenoxy)pyrimidin-4-yl)-1H-pyrazol-1-yl)-N-methylacetamide]
≤ 10 | ≤ 10 | ≤ 10 | Cn1ncnc1-c1cc(Oc2ccc(NC(=O)Nc3ccc(Cl)c(C(F)(F)F)c3)cc2)ncn1 [Example 23, 1-(4-Chloro-3-(trifluoromethyl)phenyl)-3-(4-(6-(1-methyl-1H-1,2,4-triazol-5-yl)pyrimidin-4-yloxy)phenyl)urea]
≤ 10 | ≤ 10 | ≤ 10 | NC(=O)c1coc(-c2cc(Oc3cccc(NC(=O)Nc4ccc(Cl)c(C(F)(F)F)c4)c3)ncn2)n1 [Example 82, 2-(6-(3-(3-(4-Chloro-3-(trifluoromethyl)phenyl)ureido)phenoxy)pyrimidin-4-yl)oxazole-4-carboxamide]
